Paper PMC8266232, “Design, synthesis, and analysis of antiproliferative and apoptosis-inducing activities of nitrile derivatives containing a benzofuran scaffold: EGFR inhibition assay and molecular modelling study” (Journal of Enzyme Inhibition and Medicinal Chemistry, 2021)

Columns and labels:
[1] = tested on: HePG2 cells (hepatocellular carcinoma); assay: MTT antiproliferative assay, HePG2; format: cell-based, human; settings: Homo sapiens, HepG2, MTT assay, HePG2, triplicate; read-out: In vitro cytotoxicity IC50, HePG2
Method: (§1) The in vitro antiproliferative activity of all synthesised compounds was evaluated by an MTT assay according to the reported method[47]^,[48].
(§2) 2. Experimental procedure
(§3) 2.1. Antiproliferative screening
(§4) The in vitro antiproliferative activity of all synthesized compounds was evaluated by an MTT assay according to the reported method using five different human cancer cell lines, including […]
(§5) cervical carcinoma (HeLa), and human prostate cancer (PC-3). The cell lines were obtained from ATCC via a holding company for biological products and vaccines (VACSERA), Cairo, Egypt. The MTT assay is a colorimetric assay used for measuring the cellular growth based on the reduction of the yellow MTT to a purple formazan derivative by mitochondrial succinate dehydrogenase in viable cells. The color intensity of the formazan dye is correlated to the number of viable cells. The […]
(§6) IC50% values were calculated using dose response curves. The percentage of relative cell viability was calculated as (A570 of treated samples)/(A570 of untreated sample) × 100. The cytotoxic activity was defined as the concentration of the compound that caused 50% growth inhibition compared with the growth of an untreated cell. […]

[2] = tested on: HCT-116 cells (colorectal carcinoma); assay: MTT antiproliferative assay, HCT-116; format: cell-based, human; settings: Homo sapiens, HCT-116, MTT assay, HCT-116, triplicate; read-out: In vitro cytotoxicity IC50, HCT-116
Method: as §1, §2, §3, §4, §5, §6

[3] = tested on: MCF-7 cells (human breast adenocarcinoma); assay: MTT antiproliferative assay, MCF-7; format: cell-based; settings: Homo sapiens, MCF7, MTT assay, MCF-7, triplicate; read-out: In vitro cytotoxicity IC50, MCF-7
Method: as §1, §2, §3, §4, §5, §6

[4] = tested on: PC3 cells (human prostate carcinoma); assay: MTT antiproliferative assay, PC3; format: cell-based; settings: PC-3, PC3, triplicate, read-out: In vitro cytotoxicity IC50, PC3
Method: as §1, §2, §3, §4, §5, §6

[5] = tested on: HeLa cells (cervical carcinoma); assay: MTT antiproliferative assay, HeLa; format: cell-based, human; settings: Homo sapiens, triplicate, read-out: In vitro cytotoxicity IC50, HeLa
Method: as §1, §2, §3, §4, §5, §6

WI38 normal cell = assay: MTT cytotoxicity on normal fibroblast cells; format: cell-based; settings: Homo sapiens, WI-38; MTT assay, non tumour normal cell WI38
EGFR TK = target: T1, EGFR TK (Homo sapiens, UniProt P00533); assay: EGFR TK inhibition assay (luminescent, Kinase-Glo MAX); format: biochemical
T1 construct: add 20 μl of diluted EGFR enzyme and incubate at 30°C for 40
Method: 2.2. Epidermal growth factor inhibition assay
In vitro luminescent EGFR tyrosine kinase assay, using Kinase-Glo® MAX as a detection reagent using DP‐Glo™ reagent that measures the adenosine diphosphate (ADP) formed from a kinase reaction, were performed; this luminescent signal positively correlates with ADP amount and kinase activity. In 17 μl of distilled water, 6 μl of Kinase assay buffer and 1 μl ATP and 1 μl PTK substrate were mixed (master mixture). In every well, mix 20 μl of the master mixture and 5 μl of Inhibitor solution (Test Inhibitor) for positive control, and use 5 μl of the same solution without inhibitor (Inhibitor buffer) as the blank solution; add 20 μl of diluted EGFR enzyme and incubate at 30°C for 40

[6] = tested on: human caspase-3 (active) in MCF-7 cells; assay: Caspase-3 ELISA in MCF-7 cells; format: cell-based
Method: Caspases are critical mediators of programmed cell death, that is, apoptosis. Caspase-3 is important in processes involving dissociation of the cell and the formation of the apoptotic element; therefore, it is regarded as one of the best biochemical hallmarks of apoptosis. […] The concentration of active caspase-3 was measured using the ELISA technique. In addition, the fluorescence density produced by the tested compounds is illustrated in Figure 4. […] The level of caspase-3 increased 5.7-fold compared to the control. Moreover, a considerable 7.3-fold increase in the caspase-3 level was detected following the treatment of the MCF-7 cells with compound 11. The bioluminescent intensities of caspase-3 indicated the apoptotic activity of compounds 3 and 11.
Afterward, measure luminescence using the
tested in triplicates.[36-38].
active caspase-3 [49]. […] The tested
Subsequently, 100 µL of an
incubated for 30 min at room temperature.
chromogen. […] The intensity of the resulting colored

MCF-7 cells [7] = assay: Annexin V-FITC/PI apoptosis assay, MCF-7; settings: MCF-7, 10 µM, 24 h
MCF-7 cells [8] = assay: Cell cycle analysis by PI flow cytometry, MCF-7; settings: MCF-7, 10 µM, 24 h

T1 sequence (P00533 25-1210): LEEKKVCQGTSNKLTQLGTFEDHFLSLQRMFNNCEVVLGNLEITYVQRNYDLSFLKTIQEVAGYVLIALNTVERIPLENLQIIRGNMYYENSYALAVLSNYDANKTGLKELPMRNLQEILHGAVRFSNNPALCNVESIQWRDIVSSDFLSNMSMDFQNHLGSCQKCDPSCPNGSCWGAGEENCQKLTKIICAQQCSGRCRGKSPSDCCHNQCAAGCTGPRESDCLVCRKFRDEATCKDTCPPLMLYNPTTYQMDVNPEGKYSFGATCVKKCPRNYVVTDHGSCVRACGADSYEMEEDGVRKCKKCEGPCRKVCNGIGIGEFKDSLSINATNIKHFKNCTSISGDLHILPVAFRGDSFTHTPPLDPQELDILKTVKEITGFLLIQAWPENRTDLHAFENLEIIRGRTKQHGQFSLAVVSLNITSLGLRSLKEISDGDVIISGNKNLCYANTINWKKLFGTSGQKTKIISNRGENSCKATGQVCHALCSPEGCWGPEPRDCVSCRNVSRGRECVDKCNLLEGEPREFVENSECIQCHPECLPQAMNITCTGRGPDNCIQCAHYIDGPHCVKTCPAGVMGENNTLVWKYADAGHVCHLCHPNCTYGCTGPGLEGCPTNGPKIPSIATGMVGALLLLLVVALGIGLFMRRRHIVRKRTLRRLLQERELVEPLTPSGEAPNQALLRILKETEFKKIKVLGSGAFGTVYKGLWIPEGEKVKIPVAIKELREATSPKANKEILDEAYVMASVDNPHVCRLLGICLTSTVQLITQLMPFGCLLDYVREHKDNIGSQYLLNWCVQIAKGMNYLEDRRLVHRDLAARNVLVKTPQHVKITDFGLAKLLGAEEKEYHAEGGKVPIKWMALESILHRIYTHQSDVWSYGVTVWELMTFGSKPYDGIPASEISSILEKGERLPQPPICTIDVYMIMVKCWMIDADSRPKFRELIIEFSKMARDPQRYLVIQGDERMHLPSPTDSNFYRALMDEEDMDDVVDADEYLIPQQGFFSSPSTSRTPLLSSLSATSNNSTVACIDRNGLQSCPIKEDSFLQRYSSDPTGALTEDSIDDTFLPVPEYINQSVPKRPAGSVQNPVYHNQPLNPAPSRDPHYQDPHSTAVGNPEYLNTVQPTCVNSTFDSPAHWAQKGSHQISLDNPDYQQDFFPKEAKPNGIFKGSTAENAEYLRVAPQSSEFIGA

Compound: N#Cc1c(-c2cc3ccccc3o2)ccnc1NCCc1ccccc1 [Compound 11, 4-(Benzofuran-2-yl)-2-(phenethylamino)nicotinonitrile]
- IC50 [1]: 20.4 ± 1.6 µM
- IC50 [2]: 46.1 ± 2.7 µM
- IC50 [3]: 14.6 ± 1.3 µM
- IC50 [4]: 18.8 ± 1.5 µM
- IC50 [5]: 32.1 ± 1.9 µM
- IC50 (WI38 normal cell): 94.5 ± 5.13 µM
- IC50 (EGFR TK): 810 nM
- Caspase-3 Conc. ([6]; ELISA, control 60.7): 440.08 pg/mL
- Caspase-3 level, Fold ([6]; compared to the control): 7.3 fold
- Necrosis (MCF-7 cells [7]; control 0.15): 1.23%
- Early apoptosis (MCF-7 cells [7]; control 0.16): 6.89%
- Late apoptosis (MCF-7 cells [7]; control 0.24): 8.13%
- Apoptosis, Total (MCF-7 cells [7]; control 0.55): 16.25%
- %Pre/G1 (MCF-7 cells [8]; control 0.55, '% Apoptosis' in Figure 6A): 16.25%
- %G2/M (MCF-7 cells [8]; control 3.66): 15.28%
- %S (MCF-7 cells [8]; control 27.37): 21.36%
- %G0/G1 (MCF-7 cells [8]; control 66.42): 47.11%
